Tested on: MV-4-11 cells
Test: Gene expression microarray analysis (Affymetrix PrimeView) and GSEA
Type: cell-based, human
Parameters: RFU PODN (11730768_x_at) / Fold change /veh PODN (11730768_x_at) / RFU LINC00158 (11744669_a_at) / Fold change /veh LINC00158 (11744669_a_at) / RFU DUSP10 (11751237_a_at) / Fold change /veh DUSP10 (11751237_a_at) / RFU ID3 (11757404_x_at) / Fold change /veh ID3 (11757404_x_at) / RFU PLEKHG5 (11737974_s_at) / Fold change /veh PLEKHG5 (11737974_s_at) / RFU LRRC4B (11730491_at) / Fold change /veh LRRC4B (11730491_at) / RFU GIMAP4 (11747438_a_at) / Fold change /veh GIMAP4 (11747438_a_at) / RFU KRT8 (11758183_x_at) / Fold change /veh KRT8 (11758183_x_at) / RFU CNN1 (11734310_a_at) / Fold change /veh CNN1 (11734310_a_at) / RFU VPS37D (11726825_at) / Fold change /veh VPS37D (11726825_at) / RFU C10orf10 (11716522_x_at) / Fold change /veh C10orf10 (11716522_x_at) / RFU KIR2DL2 /// KIR2DL4 /// KIR2DL5A /// KIR2DL5B /// KIR2DS1 /// KIR2DS2 /// KIR2DS3 /// KIR2DS4 /// KIR3DL3 /// KIR3DL3 /// KIR3DS1 (11738374_at) / Fold change /veh KIR2DL2 /// KIR2DL4 /// KIR2DL5A /// KIR2DL5B /// KIR2DS1 /// KIR2DS2 /// KIR2DS3 /// KIR2DS4 /// KIR3DL3 /// KIR3DL3 /// KIR3DS1 (11738374_at) / RFU C1QL1 (11718748_at) / Fold change /veh C1QL1 (11718748_at) / RFU TMPRSS4 (11747572_a_at) / Fold change /veh TMPRSS4 (11747572_a_at) / RFU HAMP (11756126_x_at) / Fold change /veh HAMP (11756126_x_at) / RFU RNFT2 (11725882_a_at) / Fold change /veh RNFT2 (11725882_a_at) / RFU NR4A2 (11747474_a_at) / Fold change /veh NR4A2 (11747474_a_at) / RFU ABCC12 (11746883_a_at) / Fold change /veh ABCC12 (11746883_a_at) / RFU TMEM136 (11760407_x_at) / Fold change /veh TMEM136 (11760407_x_at) / RFU CLDN22 /// WWC2 (11732394_at) / Fold change /veh CLDN22 /// WWC2 (11732394_at) / RFU HLA-DPB1 (11760878_x_at) / Fold change /veh HLA-DPB1 (11760878_x_at) / RFU SPINT1 (11716480_a_at) / Fold change /veh SPINT1 (11716480_a_at) / RFU GAP43 (11754022_s_at) / Fold change /veh GAP43 (11754022_s_at) / RFU A4GNT (11735810_at) / Fold change /veh A4GNT (11735810_at) / RFU PRB3 (11715151_x_at) / Fold change /veh PRB3 (11715151_x_at) / RFU TUBB4B (11761932_at) / Fold change /veh TUBB4B (11761932_at) / RFU CAPN14 (11732068_a_at) / Fold change /veh CAPN14 (11732068_a_at) / RFU TMCC2 (11721928_a_at) / Fold change /veh TMCC2 (11721928_a_at) / RFU IRGQ (11745062_a_at) / Fold change /veh IRGQ (11745062_a_at) / RFU FAM174B (11720279_a_at) / Fold change /veh FAM174B (11720279_a_at) / RFU TMPRSS4 (11748680_a_at) / Fold change /veh TMPRSS4 (11748680_a_at) / RFU FAM212B (11763350_a_at) / Fold change /veh FAM212B (11763350_a_at) / RFU PLEKHG5 (11743358_a_at) / Fold change /veh PLEKHG5 (11743358_a_at) / RFU ZSCAN30 (11745921_a_at) / Fold change /veh ZSCAN30 (11745921_a_at) / RFU CMKLR1 (11741424_a_at) / Fold change /veh CMKLR1 (11741424_a_at) / RFU LOC101060620 /// MAPK8IP1 (11723275_at) / Fold change /veh LOC101060620 /// MAPK8IP1 (11723275_at) / RFU SPTSSB (11747773_x_at) / Fold change /veh SPTSSB (11747773_x_at) / RFU PRSS12 (11739890_at) / Fold change /veh PRSS12 (11739890_at) / RFU BIN1 (11741810_x_at) / Fold change /veh BIN1 (11741810_x_at) / RFU WNT11 (11732464_a_at) / Fold change /veh WNT11 (11732464_a_at) / RFU C10orf10 (11716521_a_at) / Fold change /veh C10orf10 (11716521_a_at) / RFU C5orf56 (11738089_at) / Fold change /veh C5orf56 (11738089_at) / RFU CYB561 (11721691_x_at) / Fold change /veh CYB561 (11721691_x_at) / RFU ANKRD19P (11752326_a_at) / Fold change /veh ANKRD19P (11752326_a_at) / RFU OR2T12 /// OR2T33 /// OR2T8 (11738714_s_at) / Fold change /veh OR2T12 /// OR2T33 /// OR2T8 (11738714_s_at) / RFU VCAN (11748164_a_at) / Fold change /veh VCAN (11748164_a_at) / RFU JSRP1 (11732532_at) / Fold change /veh JSRP1 (11732532_at) / RFU KRTAP10-11 (11738290_x_at) / Fold change /veh KRTAP10-11 (11738290_x_at) / RFU MYO3A (11730013_a_at) / Fold change /veh MYO3A (11730013_a_at) / RFU EBF3 (11725865_a_at) / Fold change /veh EBF3 (11725865_a_at) / RFU CAMK2N1 (11719241_x_at) / Fold change /veh CAMK2N1 (11719241_x_at) / RFU C5orf56 (11738088_a_at) / Fold change /veh C5orf56 (11738088_a_at) / RFU OLFML3 (11715873_a_at) / Fold change /veh OLFML3 (11715873_a_at) / RFU LOC100653217 /// NTM (11731650_a_at) / Fold change /veh LOC100653217 /// NTM (11731650_a_at) / RFU MAPK11 (11762145_a_at) / Fold change /veh MAPK11 (11762145_a_at) / RFU FIZ1 (11724087_x_at) / Fold change /veh FIZ1 (11724087_x_at) / RFU OASL (11726364_x_at) / Fold change /veh OASL (11726364_x_at) / RFU SOX15 (11748057_x_at) / Fold change /veh SOX15 (11748057_x_at) / RFU CD79A (11719716_a_at) / Fold change /veh CD79A (11719716_a_at) / RFU HIST1H1D (11736915_at) / Fold change /veh HIST1H1D (11736915_at) / RFU CASKIN2 (11723855_a_at) / Fold change /veh CASKIN2 (11723855_a_at) / RFU LOC730098 (11760151_x_at) / Fold change /veh LOC730098 (11760151_x_at) / RFU OR4N2 (11742367_at) / Fold change /veh OR4N2 (11742367_at) / RFU PRRT2 (11749266_a_at) / Fold change /veh PRRT2 (11749266_a_at) / RFU SNX32 (11753110_a_at) / Fold change /veh SNX32 (11753110_a_at) / RFU CDHR5 (11726645_a_at) / Fold change /veh CDHR5 (11726645_a_at) / RFU RCAN1 (11760418_a_at) / Fold change /veh RCAN1 (11760418_a_at) / RFU FAM167A (11723789_a_at) / Fold change /veh FAM167A (11723789_a_at) / RFU FAM26E (11764081_at) / Fold change /veh FAM26E (11764081_at) / RFU ISYNA1 (11749810_s_at) / Fold change /veh ISYNA1 (11749810_s_at) / RFU ACY1 (11761880_at) / Fold change /veh ACY1 (11761880_at) / RFU 11764098_at / Fold change /veh 11764098_at / RFU SAMD14 (11745864_x_at) / Fold change /veh SAMD14 (11745864_x_at) / RFU NPB (11741838_a_at) / Fold change /veh NPB (11741838_a_at) / RFU TMPRSS6 (11731388_a_at) / Fold change /veh TMPRSS6 (11731388_a_at) / RFU KRTAP10-2 (11738614_at) / Fold change /veh KRTAP10-2 (11738614_at) / RFU ARHGAP8 /// PRR5-ARHGAP8 (11727945_x_at) / Fold change /veh ARHGAP8 /// PRR5-ARHGAP8 (11727945_x_at) / RFU KRTAP5-7 /// NADSYN1 (11734609_at) / Fold change /veh KRTAP5-7 /// NADSYN1 (11734609_at) / RFU RASL12 (11751679_a_at) / Fold change /veh RASL12 (11751679_a_at) / RFU CDKN2B (11736163_a_at) / Fold change /veh CDKN2B (11736163_a_at) / RFU PRF1 (11729649_at) / Fold change /veh PRF1 (11729649_at) / RFU, ZNF638 /// ZNF638-IT1 / Fold change vs veh, ZNF638 /// ZNF638-IT1 / RFU, PANK3 / Fold change vs veh, PANK3 / RFU, SH3YL1 / Fold change vs veh, SH3YL1 / RFU, ZEB2 / Fold change vs veh, ZEB2 / RFU, NRIP1 / Fold change vs veh, NRIP1 / RFU, PTTG1IP / Fold change vs veh, PTTG1IP / RFU, CAPN2 / Fold change vs veh, CAPN2 / RFU, MED14 / Fold change vs veh, MED14 / RFU, SNORA58 / Fold change vs veh, SNORA58 / RFU, C1orf63 / Fold change vs veh, C1orf63 / RFU, LRRFIP1 / Fold change vs veh, LRRFIP1 / RFU, NDUFAF7 / Fold change vs veh, NDUFAF7 / RFU, SLC12A2 / Fold change vs veh, SLC12A2 / RFU, IBTK / Fold change vs veh, IBTK / RFU, ESF1 / Fold change vs veh, ESF1 / Fold change vs veh, TMEM50B / RFU, TAOK1 / Fold change vs veh, TAOK1 / RFU, ACBD3 / Fold change vs veh, ACBD3 / RFU, TMA16 / Fold change vs veh, TMA16 / RFU, RWDD3 / Fold change vs veh, RWDD3 / RFU, BCAT1 / Fold change vs veh, BCAT1 / RFU, EDEM3 / Fold change vs veh, EDEM3 / RFU, TMEM33 / Fold change vs veh, TMEM33 / RFU, WDR75 / Fold change vs veh, WDR75 / RFU, AHCTF1 / Fold change vs veh, AHCTF1 / RFU, TFRC / Fold change vs veh, TFRC / RFU, ZDHHC17 / Fold change vs veh, ZDHHC17 / RFU, NOM1 / Fold change vs veh, NOM1 / RFU, ARL8B / Fold change vs veh, ARL8B / RFU, ZBTB11 / Fold change vs veh, ZBTB11 / RFU, TAMM41 / Fold change vs veh, TAMM41 / RFU, KIAA1704 /// LOC100996395 / Fold change vs veh, KIAA1704 /// LOC100996395 / RFU, ING1 / Fold change vs veh, ING1 / RFU, TRMT61B / Fold change vs veh, TRMT61B / RFU, FUBP3 / Fold change vs veh, FUBP3 / RFU, TP53 / Fold change vs veh, TP53 / RFU, TNKS2 / Fold change vs veh, TNKS2 / RFU, ZFP14 / Fold change vs veh, ZFP14 / RFU, ACTR2 / Fold change vs veh, ACTR2 / RFU, PPP3R1 / Fold change vs veh, PPP3R1 / RFU, PIK3R1 / Fold change vs veh, PIK3R1 / RFU, HNRNPA1 / Fold change vs veh, HNRNPA1 / RFU, RNF170 / Fold change vs veh, RNF170 / RFU, ZNF28 / Fold change vs veh, ZNF28 / RFU, RNGTT / Fold change vs veh, RNGTT / RFU, OGT / Fold change vs veh, OGT / RFU, BRD1 / Fold change vs veh, BRD1 / RFU, MARS / Fold change vs veh, MARS / RFU, ZNF655 / Fold change vs veh, ZNF655 / RFU, FAHD1 / Fold change vs veh, FAHD1 / RFU, BDP1 / Fold change vs veh, BDP1 / RFU, LRRCC1 / Fold change vs veh, LRRCC1 / RFU, ARID1A / Fold change vs veh, ARID1A / RFU, ZNF146 / Fold change vs veh, ZNF146 / RFU, ZNF330 / Fold change vs veh, ZNF330 / RFU, GPN3 / Fold change vs veh, GPN3 / RFU, C9orf123 / Fold change vs veh, C9orf123 / RFU, N4BP2L2 / Fold change vs veh, N4BP2L2 / RFU, ARFIP1 / Fold change vs veh, ARFIP1 / RFU, FAM179B / Fold change vs veh, FAM179B / RFU, BCL10 / Fold change vs veh, BCL10 / RFU, UHRF1BP1L / Fold change vs veh, UHRF1BP1L / RFU, BET1 / Fold change vs veh, BET1 / RFU, CNOT2 / Fold change vs veh, CNOT2 / RFU, ZNF268 / Fold change vs veh, ZNF268 / Fold change vs veh, ZNF507 / RFU, DGCR2 / Fold change vs veh, DGCR2 / RFU, WDSUB1 / Fold change vs veh, WDSUB1 / Fold change vs veh, HSP90B1 /// MIR3652 / RFU, ADSS / Fold change vs veh, ADSS / RFU, GK / Fold change vs veh, GK / RFU, ZNF148 / Fold change vs veh, ZNF148 / RFU, TAF9 / Fold change vs veh, TAF9 / RFU, SLC1A5 / Fold change vs veh, SLC1A5 / RFU, SLMO2 / Fold change vs veh, SLMO2 / RFU, ABCC4 / Fold change vs veh, ABCC4 / RFU, LOC101060439 /// RAP1B / Fold change vs veh, LOC101060439 /// RAP1B / RFU, RFX7 / Fold change vs veh, RFX7 / RFU, GTPBP10 / Fold change vs veh, GTPBP10 / RFU, CNEP1R1 / Fold change vs veh, CNEP1R1 / RFU, BIVM-ERCC5 /// ERCC5 / Fold change vs veh, BIVM-ERCC5 /// ERCC5 / RFU, ILF3 / Fold change vs veh, ILF3 / RFU 11762660_at / Fold change /veh 11762660_at / RFU VCAN (11757783_s_at) / Fold change /veh VCAN (11757783_s_at) / RFU DDX43 (11728927_at) / Fold change /veh DDX43 (11728927_at) / RFU KRT8 (11758188_x_at) / Fold change /veh KRT8 (11758188_x_at) / RFU NKD1 (11759106_at) / Fold change /veh NKD1 (11759106_at) / RFU SRD5A1 (11742802_a_at) / Fold change /veh SRD5A1 (11742802_a_at) / RFU TPSAB1 /// TPSB2 (11721975_s_at) / Fold change /veh TPSAB1 /// TPSB2 (11721975_s_at) / RFU GSTM3 (11746129_a_at) / Fold change /veh GSTM3 (11746129_a_at) / RFU IL23R (11737362_x_at) / Fold change /veh IL23R (11737362_x_at) / RFU TMEM51 (11727254_a_at) / Fold change /veh TMEM51 (11727254_a_at) / RFU PIWIL2 (11732686_x_at) / Fold change /veh PIWIL2 (11732686_x_at) / RFU ORM1 (11744905_x_at) / Fold change /veh ORM1 (11744905_x_at) / RFU CCDC152 (11743942_at) / Fold change /veh CCDC152 (11743942_at) / RFU ECM1 (11717891_a_at) / Fold change /veh ECM1 (11717891_a_at) / RFU IL23R (11748794_a_at) / Fold change /veh IL23R (11748794_a_at) / RFU TNFAIP8L3 (11732012_x_at) / Fold change /veh TNFAIP8L3 (11732012_x_at) / RFU MBOAT4 (11741988_at) / Fold change /veh MBOAT4 (11741988_at) / RFU 11764193_at / Fold change /veh 11764193_at / RFU TMEM53 (11763286_at) / Fold change /veh TMEM53 (11763286_at) / RFU MAGEB2 (11727129_at) / Fold change /veh MAGEB2 (11727129_at) / RFU TMEM200A (11744735_a_at) / Fold change /veh TMEM200A (11744735_a_at) / RFU CCDC152 (11751479_a_at) / Fold change /veh CCDC152 (11751479_a_at) / RFU FAM211A (11726209_a_at) / Fold change /veh FAM211A (11726209_a_at) / RFU RGS16 (11746705_a_at) / Fold change /veh RGS16 (11746705_a_at) / RFU VCAN (11755009_s_at) / Fold change /veh VCAN (11755009_s_at) / RFU RHOB (11743442_s_at) / Fold change /veh RHOB (11743442_s_at) / RFU RGS16 (11720943_a_at) / Fold change /veh RGS16 (11720943_a_at) / RFU RGS16 (11720944_at) / Fold change /veh RGS16 (11720944_at) / RFU, VPS4B / Fold change vs veh, VPS4B / RFU, CREB1 / Fold change vs veh, CREB1 / RFU, DNAJC13 / Fold change vs veh, DNAJC13 / RFU, GNAQ / Fold change vs veh, GNAQ / RFU, CDK5R1 / Fold change vs veh, CDK5R1 / RFU, ZRANB3 / Fold change vs veh, ZRANB3 / RFU, CUL4A / Fold change vs veh, CUL4A / RFU, CCNY / Fold change vs veh, CCNY / RFU, UFL1 / Fold change vs veh, UFL1 / RFU, COG3 / Fold change vs veh, COG3 / RFU, DIAPH2 / Fold change vs veh, DIAPH2 / RFU, SKA2 / Fold change vs veh, SKA2 / RFU, AFF3 / Fold change vs veh, AFF3 / RFU, LMF1 / Fold change vs veh, LMF1 / RFU, IPO11 / Fold change vs veh, IPO11 / RFU, DFFB / Fold change vs veh, DFFB / RFU, FOXP1 / Fold change vs veh, FOXP1 / RFU, CARD8 / Fold change vs veh, CARD8 / RFU, STRN3 / Fold change vs veh, STRN3 / RFU, ADK / Fold change vs veh, ADK / RFU, RASSF2 / Fold change vs veh, RASSF2 / RFU, WIPF1 / Fold change vs veh, WIPF1 / RFU, LARP1B / Fold change vs veh, LARP1B / RFU, RASA1 / Fold change vs veh, RASA1 / RFU, RB1 / Fold change vs veh, RB1 / RFU, PPFIA1 / Fold change vs veh, PPFIA1 / RFU, MAT2A / Fold change vs veh, MAT2A / RFU, CCT5 / Fold change vs veh, CCT5 / RFU, WDR92 / Fold change vs veh, WDR92 / RFU, CUX1 / Fold change vs veh, CUX1 / RFU, TTC7A / Fold change vs veh, TTC7A / RFU, TMEM135 / Fold change vs veh, TMEM135 / RFU, DEPTOR / Fold change vs veh, DEPTOR / RFU, CPM / Fold change vs veh, CPM / RFU, DNAJB6 / Fold change vs veh, DNAJB6 / RFU, CACNA2D3 / Fold change vs veh, CACNA2D3 / RFU, DTX4 / Fold change vs veh, DTX4 / RFU, TFCP2 / Fold change vs veh, TFCP2 / RFU, GMCL1 /// GMCL1P1 / Fold change vs veh, GMCL1 /// GMCL1P1 / RFU, AEBP2 / Fold change vs veh, AEBP2 / RFU, SNHG1 /// SNORD22 /// SNORD25 /// SNORD26 /// SNORD27 /// SNORD28 /// SNORD29 /// SNORD31 / Fold change vs veh, SNHG1 /// SNORD22 /// SNORD25 /// SNORD26 /// SNORD27 /// SNORD28 /// SNORD29 /// SNORD31 / Fold change (Aza/veh), C12orf56 (ProbeSet 11735607_a_at) / Fold change (ACY-1035/veh), C12orf56 (ProbeSet 11735607_a_at) / Fold change (Aza/veh), FGFR1OP (ProbeSet 11751329_s_at) / Fold change (ACY-1035/veh), FGFR1OP (ProbeSet 11751329_s_at) / Fold change (Aza/veh), VPS36 (ProbeSet 11739960_a_at) / Fold change (ACY-1035/veh), VPS36 (ProbeSet 11739960_a_at) / RFU SYPL1 (11715823_x_at) / Fold change /veh SYPL1 (11715823_x_at) / RFU IGFBP7 (11715501_s_at) / Fold change /veh IGFBP7 (11715501_s_at) / RFU REEP3 (11722064_at) / Fold change /veh REEP3 (11722064_at) / RFU IGLL1 (11728026_x_at) / Fold change /veh IGLL1 (11728026_x_at): dose or concentration left out as unconfirmed
Settings: ProbeSet 11719632_a_at; LIST B

**Q.** Which “Fold change vs veh, ABCC4” value does the source give for `Nc1ccc(-c2cccs2)cc1NC(=O)c1ccc2c(c1)cc(C1CC1)n2CCN1CCOCC1` [ACY-1035] here?
**A.** Its value is 0.87.
